According to ChEMBL document CHEMBL6182883, “Discovery of a series of novel 3-sulfonamido benzoic acid derivatives as promising P2Y14R antagonists for acute lung injury” (Eur J Med Chem, 2025):
The source made the active and inactive calls. The calls are words filed in the database; no cut-off is given here.

Assays:
[1] = biological target: T1, P2Y purinoceptor 14 (Homo sapiens) (UniProt Q15391); experiment: Antagonist activity at human P2Y14R expressed in HEK293 cells assessed as inhibition of UDPG-induced Ca2+ level at 5 uM by Fluo-4 dye based fluorescence assay relative to control; type: functional, cell-based
T1 sequence (whole entry): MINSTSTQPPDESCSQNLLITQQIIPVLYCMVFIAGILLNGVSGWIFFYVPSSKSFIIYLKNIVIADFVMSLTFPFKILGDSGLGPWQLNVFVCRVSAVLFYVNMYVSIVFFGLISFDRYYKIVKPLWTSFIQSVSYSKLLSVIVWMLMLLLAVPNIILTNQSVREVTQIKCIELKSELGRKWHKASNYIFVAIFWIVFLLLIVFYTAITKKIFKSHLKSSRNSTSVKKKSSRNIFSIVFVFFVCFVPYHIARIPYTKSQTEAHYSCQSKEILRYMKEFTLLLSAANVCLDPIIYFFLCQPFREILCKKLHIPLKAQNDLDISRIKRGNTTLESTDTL

P2Y purinoceptor 14 = biological target: T2, P2Y purinoceptor 14 (Homo sapiens, UniProt Q15391); experiment: Antagonist activity at human P2Y14R expressed in HEK293 cells assessed as inhibition of UDPG-induced Ca2+ level by Fluo-4 dye based fluorescence assay; type: functional, cell-based
T2 sequence (Q15391 whole entry): T1 sequence (whole entry)

[2] = Aqueous solubility of the compound in pH 7.4 PBS buffer measured after 24 hrs by shake flask method; type: physicochemical
[3] = Aqueous solubility of the compound in pH 4 PBS buffer measured after 24 hrs by shake flask method; type: physicochemical
Mus musculus [4] = experiment: (§1) Antiinflammatory activity in LPS-induced C57BL/6 mouse ALI model assessed as reduction in alveolar wall thickening at 2 mg/kg, po administered once daily via gavage for 7 days followed by endotoxin challenge at 1 hr post last dose and subsequent LPS stimulation and measured after 24 hrs by H and E staining based histopathological assay; type: functional, organism-based; settings: time 8.0 day
Mus musculus [5] = experiment: as §1, with “neutrophil infiltration” for “alveolar wall thickening”; type: functional, organism-based; settings: time 8.0 day
Mus musculus [6] = experiment: Antiinflammatory activity in LPS-induced C57BL/6 mouse ALI model assessed as reduction in IL-1beta expression in BALF at 2 mg/kg, po administered once daily via gavage for 7 days followed by endotoxin challenge at 1 hr post last dose and subsequent LPS stimulation and measured after 24 hrs by ELISA; type: functional, organism-based; settings: time 8.0 day
Mus musculus [7] = experiment: Antiinflammatory activity in LPS-induced C57BL/6 mouse ALI model assessed as reduction in IL-6 expression in BALF at 2 mg/kg, po administered once daily via gavage for 7 days followed by endotoxin challenge at 1 hr post last dose and subsequent LPS stimulation and measured after 24 hrs by ELISA; type: functional, organism-based; settings: time 8.0 day
Mus musculus [8] = experiment: Antiinflammatory activity in LPS-induced C57BL/6 mouse ALI model assessed as reduction in TNF-alpha expression in BALF at 2 mg/kg, po administered once daily via gavage for 7 days followed by endotoxin challenge at 1 hr post last dose and subsequent LPS stimulation and measured after 24 hrs by ELISA; type: functional, organism-based; settings: time 8.0 day
Mus musculus [9] = experiment: Antiinflammatory activity in LPS-induced C57BL/6 mouse ALI model assessed as reduction in MPO level in BALF at 2 mg/kg, po administered once daily via gavage for 7 days followed by endotoxin challenge at 1 hr post last dose and subsequent LPS stimulation and measured after 24 hrs by ELISA; type: functional, organism-based; settings: time 8.0 day

SMILES | inhibition ([1]; filed as antagonist) | further results
O=C(O)c1cc(NS(=O)(=O)c2ccc([N+](=O)[O-])cc2)cc(-c2ccc(C3CCNCC3)cc2)c1 | 82.6% | –
CC(C)(C)c1ccc(S(=O)(=O)Nc2cc(C(=O)O)cc(-c3ccc(C4CCNCC4)cc3)c2)cc1 | 49.6% | –
COc1ccc(S(=O)(=O)Nc2cc(C(=O)O)cc(-c3ccc(C4CCNCC4)cc3)c2)cc1OC | – | inhibition [1]: 23.5%
O=C(O)c1cc(NS(=O)(=O)c2ccccc2)cc(-c2ccc(C3CCNCC3)cc2)c1 | 81.5% | –
COc1ccccc1S(=O)(=O)Nc1cc(C(=O)O)cc(-c2ccc(C3CCNCC3)cc2)c1 | – | inhibition [1]: 14.3%
O=C(O)c1cc(NS(=O)(=O)c2ccc(-c3ccccc3)cc2)cc(-c2ccc(C3CCNCC3)cc2)c1 | 60.5% | –
O=C(O)c1cc(NS(=O)(=O)CCc2ccc(Br)cc2)cc(-c2ccc(C3CCNCC3)cc2)c1 | 96.7% | IC50 (P2Y purinoceptor 14): 0.0196 µM
O=C(O)c1cc(NS(=O)(=O)CCc2ccc(Cl)cc2)cc(-c2ccc(C3CCNCC3)cc2)c1 | 92.6% | IC50 (P2Y purinoceptor 14): 0.0286 µM
O=C(O)c1cc(-c2ccc(C3CCNCC3)cc2)c2ccc(-c3ccc(C(F)(F)F)cc3)cc2c1 [PPTN] | – | solubility thermodynamic at 24 h [2]: < 0.01 mg/mL; solubility thermodynamic at 24 h [3]: < 0.01 mg/mL
O=C(O)c1cc(NS(=O)(=O)Cc2ccc(Cl)cc2)cc(-c2ccc(C3CCNCC3)cc2)c1 | 80.1% | –
C[C@@H]1C[C@H]2[C@@H]3CCC4=CC(=O)C=C[C@]4(C)[C@@]3(F)[C@@H](O)C[C@]2(C)[C@@]1(O)C(=O)CO | – | Activity (Mus musculus [4]): Active; Activity (Mus musculus [5]): Active; Activity (Mus musculus [6]): Active; Activity (Mus musculus [7]): Active; Activity (Mus musculus [8]): Active; Activity (Mus musculus [9]): Active
O=C(O)c1cc(NS(=O)(=O)c2ccc(-c3ccc([N+](=O)[O-])cc3)cc2)cc(-c2ccc(C3CCNCC3)cc2)c1 | 65.1% | –

Further lines, with some results ahead:

inhibition ([1]; filed as antagonist) | SMILES | further results
76.5% | O=C(O)c1cc(NS(=O)(=O)c2ccc(-c3ccc(C(F)(F)F)cc3)cc2)cc(-c2ccc(C3CCNCC3)cc2)c1 | –
76.2% | O=C(O)c1cc(NS(=O)(=O)c2cccc(F)c2)cc(-c2ccc(C3CCNCC3)cc2)c1 | –
81% | O=C(O)c1cc(NS(=O)(=O)c2ccc(Br)cc2)cc(-c2ccc(C3CCNCC3)cc2)c1 | –
85.2% | O=C(O)c1cc(NS(=O)(=O)c2ccc(F)cc2)cc(-c2ccc(C3CCNCC3)cc2)c1 | IC50 (P2Y purinoceptor 14): 0.0496 µM
59.7% | O=C(O)c1cc(NS(=O)(=O)c2ccc(-c3ccc(F)cc3)cc2)cc(-c2ccc(C3CCNCC3)cc2)c1 | –
69.5% | CC(C)c1ccc(S(=O)(=O)Nc2cc(C(=O)O)cc(-c3ccc(C4CCNCC4)cc3)c2)cc1 | –
90.8% | O=C(O)c1cc(NS(=O)(=O)c2ccc(C(F)(F)F)cc2)cc(-c2ccc(C3CCNCC3)cc2)c1 | IC50 (P2Y purinoceptor 14): 0.0232 µM
